Assay results taken from patent publication US10881656B2, “HIF inhibitors and use thereof” (The General Hospital Corporation, priority 2008, dated 2021).

Tests used:
HIF = conditions: published; cited from earlier work
[1] = system: HIF-2a (HRE-luciferase, 7H4 cells); assay: HRE-luciferase reporter assay in 786-O derived 7H4 cells; type: cell-based, human; conditions: 786-O cells, 24 hours
Method: The screen for small molecule inhibitors was performed in the Institute for Chemical and Cellular biology, Harvard Medical School. 7SV or 7H4 cells were plated onto 384-well plates. The next day compounds were added robotically to the medium, to a final concentration of approximately 10 μM. 24 hours later, media was aspirated and Passive Lysis Buffer (Promega) and Luciferase Assay Reagent II (Promega) were added. Luciferase activity was measured with an Analyst plate reader (LJL Biosystems). All experiments were performed in duplicate and the identity of lead compounds was confirmed by mass spectroscopy
Luciferase assays were performed using the Promega's Dual-luciferase Assay Reporter System (Promega, E1910) according to the manufacturer's instructions. Counts obtained from transient transfections were normalized for co-transfected Renilla luciferase. Stable clones were normalized to medium only treated wells.
Functionally validated HRE and control SV40 luciferase reporter constructs were stably introduced into VHL-deficient 786-O cells to generate 7H4 and 7SV lines, respectively (see FIG. 8A). These lines were used to screen five commercial small molecule libraries (NCI Diversity Set, Chembridge, Maybridge, CEREP and Peakdale) and the ICCB Diversity-Oriented Synthesis (DOS) Diversity Set 2 (DDS2) and serine-derived peptidomimetic (SDP1) collections, totaling 58,000 compounds.
786-O cells were untreated (M, for medium only), mock-treated (D, for DMSO) or treated with compounds for two days before assaying for normalized luciferase activity. The resulting dose response curves are shown along with the compound structures in FIGS. 1A-1H).
To validate the connectivity map-derived prediction that PGJ2 is involved in HIF signaling, the inventors treated HRE-luciferase expressing 786-O cells (7H4) and SV40-luciferase expressing control cells (7SV) with increasing doses of PGJ2.

NFkB = assay: TransAM NFkB ELISA; type: cell-based, human; conditions: 786-O cells, 5uM, 24 hours
Method: Experiments were performed in triplicate. Error bars represent Standard Error of the Mean (SEM).

[2] = system: iron (Fe-(EDHB)3 complex); assay: In vitro iron competition assay; conditions: 0-200 micromolars, absorbance at 500 nm
Method: This assay was performed similarly to that described previously (Wang et al., 2002). Briefly, displacement of iron from ethyl-3,4-dihydroxybenzoate (EDHB) complex was measured as a decrease in absorbance at 500 nm. Ferric iron, prepared as a 5 mM stock solution of FeC13 in 100 mM sodium citrate, was diluted to 25 μM in the presence of 750 μM EDHB. 1 ml aliquots of this solution were then mixed with 0, 25, 50, 100 or 200 micromolars of compounds 40, 41, 76, and 77 as well as EDTA and DFO for controls. […] The self absorbance of compound 41 in a matched solution lacking Fe-(EDHB)3 was subtracted from the A500 value obtained in the presence of the Fe-(EDHB)3 complex.
The inventors next directly tested whether the compounds bind iron by performing a competition assay in which the displacement of iron from ethyl-3,4-dihydroxybenzoate (EDHB), a weakly chelating ester, was measured as a decrease in absorbance at 500 nm. […] In addition, the inventors utilized the Connectivity Map to look for similarities between the induced gene expression signatures of low and high dose DFO and compound treated cells (Lamb et al., 2006). Using this bioinformatic approach, the inventors discovered no significant similarity between the gene expression profile of the compounds and low (chelating) DFO dose, while there was a negative correlation between compound effect and high (HIF stabilizing) DFO dose (see FIG. 13).

[3] = molecular target: T1, IRP2 binding to Ferritin-L IRE (Homo sapiens, UniProt P48200); assay: Electrophoretic mobility shift assay, Ferritin L IRE probe; conditions: 786-O lysates, EMSA
T1 construct: when expressed in endogenous levels; endogenous in cells; host or cells: 786-O
T1 sequence (P48200 whole entry): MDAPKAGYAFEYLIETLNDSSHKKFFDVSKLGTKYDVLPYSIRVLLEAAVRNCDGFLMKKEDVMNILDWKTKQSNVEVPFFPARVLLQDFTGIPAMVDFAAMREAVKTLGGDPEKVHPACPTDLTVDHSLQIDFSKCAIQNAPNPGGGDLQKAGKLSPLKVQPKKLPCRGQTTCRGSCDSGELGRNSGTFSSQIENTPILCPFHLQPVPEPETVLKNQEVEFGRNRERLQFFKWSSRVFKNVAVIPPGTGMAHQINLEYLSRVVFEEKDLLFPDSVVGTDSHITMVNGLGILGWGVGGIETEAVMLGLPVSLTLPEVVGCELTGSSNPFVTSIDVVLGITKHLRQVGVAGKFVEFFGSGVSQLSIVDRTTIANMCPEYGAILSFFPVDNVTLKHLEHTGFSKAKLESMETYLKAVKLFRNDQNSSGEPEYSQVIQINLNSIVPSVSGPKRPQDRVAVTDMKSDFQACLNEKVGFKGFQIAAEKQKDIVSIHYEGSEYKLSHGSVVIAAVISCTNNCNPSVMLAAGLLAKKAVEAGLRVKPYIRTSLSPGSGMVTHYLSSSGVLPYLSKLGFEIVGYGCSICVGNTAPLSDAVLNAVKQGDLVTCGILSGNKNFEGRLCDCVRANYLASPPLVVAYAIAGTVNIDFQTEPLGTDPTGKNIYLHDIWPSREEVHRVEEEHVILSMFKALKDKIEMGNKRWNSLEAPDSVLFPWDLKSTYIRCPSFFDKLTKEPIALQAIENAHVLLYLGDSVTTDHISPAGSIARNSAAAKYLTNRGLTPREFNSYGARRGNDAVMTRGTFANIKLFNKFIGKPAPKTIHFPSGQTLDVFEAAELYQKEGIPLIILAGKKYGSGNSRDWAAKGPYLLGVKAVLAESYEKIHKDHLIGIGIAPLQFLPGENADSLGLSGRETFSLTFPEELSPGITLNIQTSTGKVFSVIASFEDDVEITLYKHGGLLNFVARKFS
Method: EMSAs were performed as described previously (Fillebeen et al., 2003). Briefly, 50 μg lysate from 786-O cells treated with medium only, DMSO, or compounds were incubated with 25,000 cpm wild-type or mutant radiolabeled HIF-2a IRE probe for 20 minutes at room temperature before loading onto non-denaturing acrylamide gels. Supershifts were performed identically, save that 0.2 μg control, IRP1 or IRP2 antibodies were also added. Total protein content was estimated by Bradford Assay (BioRad, 500-0006), and even loading for all experiments was confirmed by Western blot for B-Actin.
Inventors discovered that compound 76 increased the residual amount of IRP1 bound to the HIF-2a IRE in hypoxia, although not to the same extent as that observed in normoxic cells. […] Lastly, to further investigate the involvement of IRP2 in HIF-2a IRE, the inventors compared side by side IRP2 binding to HIF-2a and Ferritin-L IRE in 786-O cells, in conditions of normoxia or hypoxia and after treatment with compound 76 or DFO (FIG. 7E). While IRP2 binding was clearly detected on Ferritin IRE, the inventors were not able to detect measurable IRP2 binding on HIF-2a IRE.

[4] = system: HIF-2a 5′-UTR Iron-Responsive Element (IRE); assay: Luciferase reporters with HIF-2a 5′-UTR / IRE in 786-O cells; type: cell-based, human; conditions: 10 μM, normoxia and hypoxia

SMILES	Biological Activities (HIF)	Mechanism of HIF inhibtion (HIF)	further results
CCC(C)SSc1ncc[nH]1 (stereo not drawn) [PX-12]	Tumor suppression	–	–
COc1ccc2cc3[n+](cc2c1OC)CCc1cc2c(cc1-3)OCO2 [Berberine]	–	HIF degradation	–
Cc1ccc2nc(NCCN)c3ncc(C)n3c2c1 [BMS-345541, reference compound]	–	–	HRE-luciferase activity [1]: did not alter the HRE-luciferase activity; basal NFkB activity (NFkB): basal NFkB activity is suppressed
O=C(O)CN(CCN(CC(=O)O)CC(=O)O)CC(=O)O [EDTA, reference compound]	–	–	displacement of iron from EDHB complex (iron chelation) [2]: readily displaced iron from EDHB
COc1cc([C@@H]2c3cc4c(cc3[C@@H](Nc3ccc([N+](=O)[O-])cc3)[C@H]3COC(=O)[C@H]23)OCO4)cc(OC)c1O [GL331]	Inhibits HUVEC	Protein levels	–
OCc1ccc(-c2nn(Cc3ccccc3)c3ccccc23)o1 [YC-1]	VEGF decrease/tumor	HIF protein levels	–
CC(=O)N(O)CCCCCNC(=O)CCC(=O)N(O)CCCCCNC(=O)CCC(=O)N(O)CCCCCN [DFO, reference compound]	–	–	binding of IRP2 to Ferritin-L IRE [3]: slightly enhanced; HIF-2a IRE luciferase reporter activity [4]: repressed reporter activity and diminished the effect of hypoxia; displacement of iron from EDHB complex (iron chelation) [2]: readily displaced iron from EDHB
CC(C)(c1ccc(O)cc1)c1ccc(O)cc1 [Bisphenol]	–	HIF degradation	–
COc1cc2c(cc1O)CC[C@@H]1[C@@H]2CC[C@]2(C)[C@@H](O)CC[C@@H]12 [Compound 2-ME2]	Inhibits HUVEC	Post-transcriptional	–
